Here are results for seven molecules from paper PMC11650735, “Challenging Reported Frizzled-Targeting Compounds in Selective Assays Reveals Lack of Functional Inhibition and Claimed Profiles” (ACS Pharmacology & Translational Science, 2024).

One data set concerns the target firefly luciferase (Photinus pyralis, UniProt P08659). The data set can be described thus: Compound added to prestimulated TopFlash cells immediately prior to lysis and measurement. The settings on record: compound added directly before cell lysis.
In data set [1] the test system is Wnt3a/FZD7-mediated cytoplasmic β-catenin accumulation. In words: Western blot of FZD7-dependent cytoplasmic β-catenin accumulation in ΔFZD1–10 HEK293T. The settings on record: 10 μM, FZD7-transfected ΔFZD1–10 HEK293T. The format is cell-based, human. The protocol:
In 24-well plates, a ΔFZD1–10 HEK293T cell line was reinfected with a baculovirus expressing FZD7 or a control baculovirus at a density of 100,000 cells/well. The new medium containing the 10 μM F7H-28 derivative and the indicated Wnt activators (500 ng/mL Wnt3a or 1 μM CHIR99021) was added and incubated until the next day. The medium was then removed, and 500 μL of 1× PBS was used twice for washing. After adding 30 μL of ice-cold 1× TBS supplemented with 4 mM EDTA and 1× protease inhibitor cocktail, the cells were lysed by scraping and passed through an insulin 30G needle 10 times. The samples were centrifuged at 18,000g and 4 °C for 10 min to remove debris. Western blot was performed on 15 μL of each supernatant and developed using antibodies against α-tubulin and β-catenin.

The target in data set [2] is T1, FZD7 (Homo sapiens, UniProt O75084). The data set can be described thus: cell-based.
For data set [3], the target named is T1, FZD7. The data set can be described thus: NanoLuc-substituted TopFlash reporter in ΔFZD1–10 HEK293T cotransfected with FZD7, Wnt3a.
Data set [4] concerns HEK293T cells. The data set can be described thus: Renilla luciferase (pRL-CMV) toxicity/general transcription readout in wild-type reporter HEK293T. The settings on record: for IC50: Homo sapiens, HEK-293T, read-out: IC50 (Renilla).
Data set [5] deals with T1, FZD7. The data set can be described thus: TopFlash in ΔFZD1–10 HEK293T with reexpressed FZD7, Wnt3a-stimulated. To be noted: FZD7 reexpression, firefly TopFlash.
Data set [6] relates to FZD7. Set-up: method as in PMID 37669317. The settings on record: cited from earlier work.
The test system of data set [7] is CHIR99021-stimulated Wnt pathway activation. The data set can be described thus: TopFlash assay in reporter wild-type HEK293T line, CHIR99021-stimulated. The format is cell-based, human. To be noted: for inhibition of CHIR99021-stimulated response compared with Wnt3a-stimulated, in words: wild-type reporter HEK293T, TopFlash.
The test system of another data set is ΔFZD1–10 HEK293T cells. To be noted: for toxicity / general transcriptional inhibition by Renilla signal, in words: Renilla luciferase.
Data set [8] has as its system Wnt signaling in TopFlash-transfected 3T3 cells. Further details: method as in PMID 26504084. To be noted: read-out: potency; cited from earlier work.
For data set [9], the system named is individually reexpressed FZDs (1,2,4,5,7,8, and 10). In words: TopFlash in ΔFZD1–10 HEK293T, panel of individually reexpressed FZDs, Wnt3a-stimulated (collective statements).
Data set [10] deals with Wnt3a-stimulated Wnt pathway activation. In words: TopFlash assay in reporter wild-type HEK293T line, Wnt3a-stimulated. The format is cell-based, human. To be noted: for IC50: Homo sapiens, HEK-293T, Wnt3a.
The test system of data set [11] is CHIR99021-induced Wnt pathway activation (FZD-independent). The data set can be described thus: TopFlash in ΔFZD1–10 HEK293T without FZD (pcDNA), CHIR99021-stimulated.
Data set [12] relates to FZD7. Set-up: method as in PMID 29207657. The settings on record: claimed FZD7 inhibition; cited from earlier work.
A further data set deals with T2, FZD4 (Mus musculus, UniProt Q61088).
T2 sequence (Q61088 37-537): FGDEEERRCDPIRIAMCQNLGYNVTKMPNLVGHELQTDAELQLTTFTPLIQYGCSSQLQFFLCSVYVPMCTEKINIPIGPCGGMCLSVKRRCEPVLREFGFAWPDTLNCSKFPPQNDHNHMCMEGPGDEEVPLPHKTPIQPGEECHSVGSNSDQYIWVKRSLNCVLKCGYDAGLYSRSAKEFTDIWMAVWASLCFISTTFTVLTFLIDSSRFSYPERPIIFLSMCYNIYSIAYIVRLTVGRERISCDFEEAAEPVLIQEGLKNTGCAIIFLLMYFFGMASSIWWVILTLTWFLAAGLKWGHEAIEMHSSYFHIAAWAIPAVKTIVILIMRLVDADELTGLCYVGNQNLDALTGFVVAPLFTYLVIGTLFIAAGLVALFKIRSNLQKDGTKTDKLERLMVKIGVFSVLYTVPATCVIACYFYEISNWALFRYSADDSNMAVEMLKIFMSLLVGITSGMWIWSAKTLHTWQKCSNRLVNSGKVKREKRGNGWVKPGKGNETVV
In words: TopFlash in ΔFZD1–10 HEK293T with reexpressed FZD4, Wnt3a-stimulated. The settings on record: ΔFZD1–10 HEK293T + FZD4, Wnt3a, up to 50 μM.

Data set [13] relates to HEK293T cells.
The test system of the next data set is mouse FZD8. Further details: method as in PMID 32049522. The settings on record: HEK293T FZD1,2,7 knockout + mouse FZD8; cited from earlier work.
[14] abbreviates: read-out: IC50 / potency, ΔFZD1–10 HEK293T without FZD, CHIR99021.

Entries after “also recorded” stand apart in the source; their conditions may differ. Read-outs that look alike come from different tables or passages of the source.

Sequence of firefly luciferase (P08659 whole entry): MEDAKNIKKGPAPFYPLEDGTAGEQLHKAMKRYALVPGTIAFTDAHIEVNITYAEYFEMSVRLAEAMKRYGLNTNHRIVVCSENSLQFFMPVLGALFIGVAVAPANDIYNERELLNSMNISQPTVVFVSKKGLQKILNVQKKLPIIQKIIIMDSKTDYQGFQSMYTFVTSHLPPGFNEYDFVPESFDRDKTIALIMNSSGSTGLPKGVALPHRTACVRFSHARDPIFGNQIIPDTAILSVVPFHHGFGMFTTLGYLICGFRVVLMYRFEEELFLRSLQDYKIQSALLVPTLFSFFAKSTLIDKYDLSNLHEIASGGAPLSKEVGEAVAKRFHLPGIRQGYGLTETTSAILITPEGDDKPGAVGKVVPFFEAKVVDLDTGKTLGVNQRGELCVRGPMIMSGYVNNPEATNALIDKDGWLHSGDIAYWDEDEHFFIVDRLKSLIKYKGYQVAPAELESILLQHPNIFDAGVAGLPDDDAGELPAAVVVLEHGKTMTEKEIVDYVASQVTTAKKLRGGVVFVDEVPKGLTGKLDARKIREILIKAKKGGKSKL

Turning to `O=C(CSc1ccc(NC(=O)c2ccc(F)cc2)cc1)Nc1nc(-c2ccccc2)cs1` [F7H-28], the “direct effect on firefly luciferase, in words” value on firefly luciferase is “inhibits the firefly luciferase enzymatic activity”. In addition, the “effect on cytoplasmic β-catenin signal (Western blot), in words” value in data set [1] was “does not reduce this signal”. Moreover, the IC50 is greater than 50 µM at FZD7 [2], greater than 2 µM in the data set with HEK293T cells [4] and 0.04 µM with FZD7 [6]. In addition, the “effect on NanoLuc Wnt reporter, in words” value on FZD7 [3] is recorded as “does not report significant changes”. Also, the “potency compared with CHIR99021-stimulated cells, in words” value on FZD7 [5] was “same potency”.

As to `COc1ccc(C(=O)Nc2ccccc2C(=O)NC(C(=O)NNC(=O)COc2ccccc2)C(C)C)cc1` (centres unmarked) [3235-0367], the “inhibition of CHIR99021-stimulated response compared with Wnt3a-stimulated, in words” value in data set [7] is “overlapping inhibition curve”. Moreover, the IC50 in the data set on ΔFZD1–10 HEK293T cells (read-out: IC50 (Renilla), Renilla luciferase signal) was greater than 50 µM; in data set [8], 7.1 µM; in data set [10] (wild-type reporter HEK293T, TopFlash), roughly 8 µM; in the data set with HEK293T cells [4], greater than 50 µM; in data set [11] (setting [14]) it was roughly 20 µM. For the same molecule, the “selectivity among FZDs, in words” value in data set [9] (individual FZDs including FZD8) was “no significant selectivity”.

`CSCC[C@H](NC(=O)[C@@H](NC(=O)[C@H](Cc1c[nH]cn1)NC(=O)[C@H](CS)NC(=O)[C@H](Cc1c[nH]c2ccccc12)NC(=O)[C@H](Cc1ccccc1)NC(=O)[C@H](CCC(=O)O)NC(=O)[C@H](CC(C)C)NC(=O)[C@H](CC(=O)O)NC(=O)[C@H](CC(=O)O)NC(=O)[C@H](CO)NC(=O)[C@@H]1CCCN1C(=O)[C@@H](N)CC(C)C)C(C)C)C(=O)N[C@@H](Cc1ccc(O)cc1)C(=O)O` [Fz7–21, LPSDDLEFWCHVMY]: the “toxicity / general transcriptional inhibition by Renilla signal, in words” value in the data set with ΔFZD1–10 HEK293T cells is reported as “no unspecific toxicity”.

For `O=C(/C=C/c1ccc2c(c1)OCO2)Nc1ccc(-n2cnc3ccccc32)cc1` [SRI35959], the “inhibition of CHIR99021-stimulated response compared with Wnt3a-stimulated, in words” value in data set [7] is on record as “slightly (but significantly) better”. The “toxicity / general transcriptional inhibition by Renilla signal, in words” value in the data set with ΔFZD1–10 HEK293T cells is “some toxicity”. Further, the values for the IC50 (with FZD7 [12]; in data set [11] (setting [14])) were roughly 3 µM and 10 µM, respectively. Moreover, the “toxicity by effect on Renilla luciferase, in words” value with HEK293T cells [4] (wild-type reporter HEK293T, Renilla luciferase) is given as “some toxicity”.

As for `O=C(Nc1cc(O)cc(-c2cccs2)c1)Nc1ccc2ccccc2c1` [FzM1], the “activity against Wnt signaling, in words” value in [9] (any of the FZDs in ΔFZD1–10 HEK293T, Wnt3a, up to 50 μM) is recorded as “no detectable activity; also recorded: no statistically discernible effect”; in data set [10] (wild-type HEK293T, up to 50 μM), “no detectable activity; also recorded: no statistically discernible effect”. Further, the “effect on FZD4-dependent Wnt3a signaling, in words” value on FZD4 is “no statistically discernible effect”.

For `O=C(Nc1ccc([N+](=O)[O-])cc1Cl)c1cc(Cl)ccc1O` [niclosamide], the IC50 stood at 0.1 µM in [7] (Homo sapiens, HEK-293T, wild-type HEK293T reporter line); 0.1 µM in data set [9] (all individually reexpressed FZDs, Wnt3a); 0.1 µM in data set [10] (wild-type HEK293T reporter line); 0.1 µM in data set [11] (CHIR99021 in cells deprived of any FZD protein).

For `NC(=O)N1c2ccccc2C=Cc2ccccc21` [carbamazepine], the “toxicity by effect on Renilla luciferase, in words” value in the data set on HEK293T cells [13] is “some toxicity”. Moreover, in data set [7], the “inhibition of CHIR99021-stimulated response compared with Wnt3a-stimulated, in words” value is given as “slightly (but significantly) better”. Further, the “inhibition of Wnt3a-induced signal, in words” value in the data set with mouse FZD8 is reported as “partially inhibited”. Moreover, in the data set with ΔFZD1–10 HEK293T cells, the “toxicity / general transcriptional inhibition by Renilla signal, in words” value was “some toxicity”. The IC50 in data set [11] (setting [14]) was roughly 50 µM.
